Laboratory results: patent publication US20260151379A1, “SALT TYPE AND CRYSTAL FORM OF COMPLEMENT FACTOR B INHIBITOR, AND PREPARATION METHOD THEREFOR AND APPLICATION THEREOF” (SHANGHAI MEIYUE BIOTECH DEVELOPMENT CO., LTD., priority 2022, published 2026)

Experiments:
[1] = Stability tests of compound of formula I and its monohydrochloride, phosphate and maleate (Example 4); type: physicochemical
Procedure: The stability of the compound of formula I, the monohydrochloride of the compound of formula I in Example 1, the phosphate of the compound of formula I in Example 2, and the maleate of the compound of formula I in Example 3 were investigated.
Stability investigation conditions: 40° C./75% RH-closed, 40° C./75% RH-open, and 60° C.-closed; stability investigation content: changes in related substances and crystal forms.
Detection of related substances: about 6-7 mg of a sample was separately weighed out and added to a 10 mL volumetric flask; 50% aqueous acetonitrile solution was added for dissolution; the mixture was diluted to volume; and 10 μL of the sample was injected.

[2] = PK of single intragastric administration to cynomolgus monkeys (plasma concentration); type: in vivo; settings: intragastric 3 mpk and 30 mpk, same dose as control compound
Procedure: (§1) Cynomolgus monkeys were used. Each group consisted of 3 cynomolgus monkeys, and they were given the control compound at 3 mpk, the control compound at 30 mpk, the compound of formula I at 3 mpk, and the compound of formula I at 30 mpk by intragastric administration. Blood was collected at different time points and used for drug concentration analysis and complement activity detection. The compound concentration in plasma was determined by LC-MS/MS. The complement activity in serum was determined using a wieslab assay (Svar Life Science AB, COMPL AP330 RUO) kit, Normal Human Serum (Complement Technology, NHS).

[3] = Solubility tests in water, SGF, FaSSIF, FeSSIF at 37° C. (Example 5); type: physicochemical; settings: for solubility at 1 h / solubility at 24 h: 37 °C, thermodynamic from solid; for solubility at 1 h: read-out: Solubility (mg/mL) (1 h); for solubility at 24 h: read-out: Solubility (mg/mL) (24 h)
Procedure: Experimental procedures: 30 mg (in water) or 15 mg of a sample was weighed out and added to a 4 mL vial; 3 mL of a medium to be tested (water, SGF, FaSSIF, or FeSSIF) was added; the mixture was continuously stirred at 37° C.; 0.5 mL of the sample was separately collected at 1 h and 24 h; centrifugation was performed at 12000 rpm for 10 min; the supernatant was diluted with 50% aqueous acetonitrile solution to an appropriate multiple; and the concentration of the supernatant was determined.
(§2) Control and linearity: 10 mg of the compound of formula I was weighed out and added to a 50 mL volumetric flask, 50% aqueous acetonitrile solution was added for dissolution, and the mixture was diluted to volume. Two parts were prepared in parallel. The control of the compound of formula I was taken and diluted with 50% aqueous acetonitrile solution to 100 μg/mL, 50 μg/mL, and 10 μg/mL, 5 μL of the sample was injected, and a standard curve was plotted.

[4] = target: Complement factor B (Homo sapiens, UniProt P00751); experiment: Optical surface plasmon resonance (SPR) binding capacity assay
Chain of Complement factor B (P00751 26-764): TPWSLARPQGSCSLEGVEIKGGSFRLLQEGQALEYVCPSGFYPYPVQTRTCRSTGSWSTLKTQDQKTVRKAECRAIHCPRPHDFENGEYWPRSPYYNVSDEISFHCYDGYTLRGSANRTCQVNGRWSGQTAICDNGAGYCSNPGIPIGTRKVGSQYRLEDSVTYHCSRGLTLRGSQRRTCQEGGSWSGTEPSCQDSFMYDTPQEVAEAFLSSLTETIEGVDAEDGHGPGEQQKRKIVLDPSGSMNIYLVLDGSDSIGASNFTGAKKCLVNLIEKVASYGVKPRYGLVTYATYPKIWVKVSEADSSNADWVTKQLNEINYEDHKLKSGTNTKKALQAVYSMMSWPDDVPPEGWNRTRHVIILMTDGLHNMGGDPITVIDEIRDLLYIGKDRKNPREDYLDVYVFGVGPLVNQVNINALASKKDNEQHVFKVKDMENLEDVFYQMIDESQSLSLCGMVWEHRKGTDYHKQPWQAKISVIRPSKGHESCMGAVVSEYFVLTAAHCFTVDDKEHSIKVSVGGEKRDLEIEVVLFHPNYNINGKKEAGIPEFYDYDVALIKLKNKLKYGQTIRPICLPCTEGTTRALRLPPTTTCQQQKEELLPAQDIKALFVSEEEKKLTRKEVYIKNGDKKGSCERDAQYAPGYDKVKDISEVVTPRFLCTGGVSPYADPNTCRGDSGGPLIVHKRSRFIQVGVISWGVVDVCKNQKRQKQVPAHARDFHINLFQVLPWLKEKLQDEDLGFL
Procedure: An SPR experiment was carried out at 25° C. In the experiment, a PBS buffer supplemented with 0.05% (v/v) P20 and 5% DMSO was used as a running buffer, and the analytical instrument Biacore 8K of GE Healthcare was used. A CM7 chip (GE Healthcare) was activated with 400 mM EDC and 100 mM NHS at a flow rate of 30 μL/min for 420 s. […] Then the assay chip was treated with 1 M ethanolamine hydrochloride at a flow rate of 10 μL/min for 300 s for chip blocking. The concentration of the test compound was 500 μM, the binding time was 120 s, and the dissociation time was 300 s. Data analysis was performed using a 1:1 binding model (Biacore Insight Evaluation Software, Version 2.0.15.12933).

[5] = tested on: cynomolgus monkey serum AP activity; experiment: PD of single intragastric administration to cynomolgus monkeys (serum complement AP activity, wieslab assay); type: in vivo; settings: intragastric 3 mpk and 30 mpk
Procedure: as §1

[6] = Solubility tests of compound of formula I, mixture of crystal forms A and B, and crystal form C at 37° C. (Example 13); type: physicochemical; settings: 37° C.; for solubility at 1 h / solubility at 24 h: thermodynamic from solid; for solubility at 1 h: read-out: Solubility at 1 h; for solubility at 24 h: read-out: Solubility at 24 h
Procedure: An appropriate amount of a test sample was weighed out and added to a vial; 3 mL of a medium (water, SGF, FaSSIF, FeSSIF, or the like) was added; the mixture was stirred at 37° C.; […]; centrifugation was performed at 12000 rpm for 10 min; the supernatant was diluted with 50% aqueous acetonitrile solution to an appropriate multiple; and the concentration of the supernatant was determined.
as §2, with “control” for “control of the compound of formula I”

[7] = target: T1, complement factor B in human serum (Homo sapiens, UniProt P00751); experiment: Complement hemolytic activity assay (rabbit erythrocytes, normal human serum); type: cell-based; settings: versus control compound
T1 construct: from tissue; host or cells: normal human serum (NHS)
T1 sequence (P00751 26-764): as above
Procedure: Prior to the experiment, the optimal concentration of normal human serum (NHS) required to achieve 100% lysis of rabbit erythrocytes (REs) was obtained by titration testing. […] A GVB0 buffer containing 10 mM Mg-EGTA and containing NHS and RE but no test compound was used as a positive control group (100% lysis). A GVB0 buffer containing 10 mM Mg-EGTA and containing inactivated NHS (heated at 56° C. for 30 min or at 65° C. for 5 min) and RE but no test compound was used as a negative control group (0% lysis). […] Absorbance at 415 nm (A415) was measured using a microplate reader (Molecular Devices, SpectraMax i3X). IC50 values were calculated from percent hemolysis as a function of test compound concentration by non-linear regression.

[8] = SGF, simulated gastric fluid, SGF

Question: For `COc1cc(C)c2[nH]ccc2c1CN1CC[C@H](OCC2CC2)C[C@H]1c1ccc(C(=O)O)cc1` [Compound of formula I], which “Stability (conclusion in words from Table 7)” value ([1]; 40° C./75% RH closed/open and 60° C. closed, 2 wks, listed as compound of formula I) is on record?
Answer: stable

Question: What about the “Maximum single impurity %” value ([1]; 40° C./75% RH-closed-2 wks) of the same molecule?
Answer: 0.16%

Question: What about the Purity % ([1]; 40° C./75% RH-closed-2 wks) of the same molecule?
Answer: 99.23%

Question: What about the Total impurity % ([1]; 40° C./75% RH-closed-2 wks) of the same molecule?
Answer: 0.77%

Question: And the “Maximum single impurity %” value ([1]; 40° C./75% RH-open-2 wks)?
Answer: 0.17%

Question: And the Purity % ([1]; 40° C./75% RH-open-2 wks)?
Answer: 99.24%

Question: What about the Total impurity % ([1]; 40° C./75% RH-open-2 wks) of the same molecule?
Answer: 0.76%

Question: And the “Maximum single impurity %” value ([1]; 60° C.-closed-2 wks)?
Answer: 0.33%

Question: What about the Purity % ([1]; 60° C.-closed-2 wks) of the same molecule?
Answer: 98.95%

Question: What about the Total impurity % ([1]; 60° C.-closed-2 wks) of the same molecule?
Answer: 1.05%

Question: What about the “Maximum single impurity %” value ([1]; Initial) of the same molecule?
Answer: 0.10%

Question: What about the Purity % ([1]; Initial) of the same molecule?
Answer: 99.28%

Question: And the Total impurity % ([1]; Initial)?
Answer: 0.72%

Question: And the “Mean plasma concentration (in words, FIG. 21)” value [2]?
Answer: significantly higher mean plasma concentration than that of the control compound

Question: What about the “Final pH” value ([3]; FaSSIF) of the same molecule?
Answer: 6.44

Question: And the “Solubility (mg/mL) (1 h)” value ([3]; FaSSIF)?
Answer: 0.22 mg/mL

Question: What about the “Solubility (mg/mL) (24 h)” value ([3]; FaSSIF) of the same molecule?
Answer: 0.19 mg/mL

Question: And the solubility at 1 h ([3]; FeSSIF, fessif, FeSSIF)?
Answer: 0.37 mg/mL

Question: And the solubility at 24 h ([3]; FeSSIF, fessif, FeSSIF)?
Answer: 0.35 mg/mL

Question: What about the “Final pH” value ([3]; FessIF) of the same molecule?
Answer: 5.03

Question: And the “Final pH” value ([3]; SGF)?
Answer: 1.74

Question: What about the solubility at 1 h [3, 8] of the same molecule?
Answer: 5.51 mg/mL

Question: And the solubility at 24 h [3, 8]?
Answer: 5.48 mg/mL

Question: And the “Final pH” value ([3]; Water)?
Answer: 8.73

Question: And the “Solubility (mg/mL) (1 h)” value ([3]; Water)?
Answer: 0.37 mg/mL

Question: What about the “Solubility (mg/mL) (24 h)” value ([3]; Water) of the same molecule?
Answer: 0.31 mg/mL

Question: And the “Rmax (RU)” value ([4]; test compound 500 μM, 25° C., 1:1 binding model)?
Answer: 274.2 RU

Question: What about the “Binding capacity to the target protein (in words)” value ([4]; versus control compound) of the same molecule?
Answer: significantly superior to that of the control compound

Question: And the “Inhibition of cynomolgus monkey serum AP activity (in words, FIG. 22)” value [5]?
Answer: can effectively inhibit the cynomolgus monkey serum AP activity

Question: What about the “Final pH” value ([6]; FaSSIF) of the same molecule?
Answer: 6.44

Question: And the “Final pH” value ([6]; FessIF)?
Answer: 5.03

Question: What about the “Final pH” value ([6]; SGF) of the same molecule?
Answer: 1.74

Question: What about the “Final pH” value ([6]; Water) of the same molecule?
Answer: 8.73

Question: And the solubility at 1 h ([6]; simulated gastric fluid, SGF)?
Answer: 5510 µg/mL

Question: And the solubility at 24 h ([6]; simulated gastric fluid, SGF)?
Answer: 5480 µg/mL

Question: And the solubility at 1 h ([6]; FassIF)?
Answer: 220 µg/mL

Question: And the solubility at 24 h ([6]; FassIF)?
Answer: 190 µg/mL

Question: And the solubility at 1 h ([6]; FessIF)?
Answer: 370 µg/mL

Question: What about the solubility at 24 h ([6]; FessIF) of the same molecule?
Answer: 350 µg/mL

Question: What about the solubility at 1 h ([6]; Water) of the same molecule?
Answer: 370 µg/mL

Question: What about the solubility at 24 h ([6]; Water) of the same molecule?
Answer: 310 µg/mL

Question: What about the “Inhibitory activity against complement factor B in human serum (in words)” value [7] of the same molecule?
Answer: significantly better inhibitory activity against complement factor B in human serum than that of the control compound
